“Also recorded” adds a separate entry of the source.
Legend:
[1] = test system: reconstructed human epidermis (RHE); assay: PGE2 release in reconstituted human epidermis under UV stimulation; assay type: cell-based; conditions: UVB (+UVA) irradiated RHE
Protocol: Ten-day-old reconstructed human epidermis (RHE) were placed in maintenance medium. The RHE were topically treated with or without moisturizing creams containing different concentration of Urolithin A active and incubated for 24 hours. The RHE were then rinsed in PBS and irradiated with UVB (+UVA)—850 mJ/cm^2 (+6 J/cm^2) using a SOL500 Sun Simulator equipped with an H2 filter (Dr. Hönle, AG). After irradiation, the treatments were renewed and the RHE were incubated for 24 hours. In parallel, non-irradiated conditions were performed and kept in the dark during the irradiation time. All experimental conditions were performed in n=3. PGE2 released in the culture supernatants was measured using a specific ELISA kit according to the supplier's instructions (Enzo Life Sciences, ref. ADI-900-001). Statistical analysis performed by One-Way Anova.

human skin = assay: RNA-seq transcriptomics and GSEA of forearm skin biopsies (aging study 1); assay type: in vivo; conditions: 8 weeks; for expression of collagen genes (COL1A1, COL5A1, COL5A2, COL14A1, COL3A1) / gene set "collagen fibril organization" (Normalized Enrichment Score): 1% Mitopure product; for expression of collagen genes (COL1A1, COL5A1, COL5A2, COL14A1, COL3A1): change vs baseline normalized over placebo; for gene set "collagen fibril organization" (Normalized Enrichment Score): end of study vs baseline, normalized over placebo/vehicle
Protocol: In this study, a cosmetic product with a 1% concentration of the active Mitopure or a placebo product were tested on skin aging for 8 weeks. […] Gene set enrichment analysis (GSEA) was performed using the R package ClusterProfiler [Yu et al., 2012]. Briefly, in each comparison, genes were ranked by age beta score value, and the enrichment of a given gene set among up- or-down regulated genes was statistically tested. The minimum and maximum gene set sizes were set to 10 and 500, respectively. Resulting p-values were adjusted using the BH method. Terms with an adjusted p-value<0.05 were considered as statistically significant. To analyze mitochondrial effects biopsies will be taken from a subpanel on volar forearms prior and after 8 weeks of product application and will be analyzed for biomarkers by 3rd parties (See FIGS. 2 and 4). Gene set enrichment analysis (GSEA) will be employed to look for overrepresentation of known mitochondrial pathways and gene functional categories among the regulated genes expressed in human skin. Genes will be ranked by fold change (high to low) and filtered (unadjusted P value of 0.1 before using them) in the GSEA analysis to reduce the risk of false positives. Gene sets defined by the Gene Ontology (GO) Consortium (http://www.geneontology.org/) will be analyzed. We investigated biological pathways impacted by topical UA application performing RNA-seq transcriptomics of forearm skin biopsies from the aging study I. Gene set enrichment analysis (GSEA) was applied to identify significant pathways changed by UA comparing end of the study to baseline, and normalizing results over vehicle. […] We further studied which UA regulated pathways are involved in the natural skin aging process. […] This gene set includes collagen genes encoding for fibrillar type I and III collagen (FIG. 13B), known to decline in skin with chronological aging 13, photo-aging and smoking 14. […] Among them, […]-1, regulating 3D structure and elasticity 15 and AEBP, encoding for a collagen-interacting protein required for optimal tissue repair 16 (FIG. 13B).

[2] = test system: Normal Adult Human Dermal Fibroblasts (NHDF-Ad); assay: RNA sequencing gene expression in human primary dermal fibroblasts; assay type: cell-based; conditions: for expression of MMP1: vs DMSO/vehicle
Protocol: Study was conducted on Normal Adult Human Dermal Fibroblasts (NHDF-Ad) from two pooled donors (Catalog #: CC-2511) and Normal Adult Human Epidermal Keratinocytes (NHEK-Ad) from two pooled donors (Catalog #: 00192627, Lonza). The primary skin cells were amplified in flask and seeded in 12-well cell culture plates, filled with 1 mL of culture medium and then incubated at 37° C. with 5% CO2 and saturated hygrometry. The basic culture medium of human dermal fibroblasts was composed of FBM™ medium (Fibroblast Growth Basal Medium) supplemented with insulin 0.1%, hFGF-B 0.1%, GA-1000 0.1% and FBS 2%. The basic culture medium of human keratinocytes was composed of KBM™ Gold medium (Keratinocytes Basal Medium) supplemented with Hydrocortisone, Transferrin, Epinephrine, Gentamycin, Amphotericin B, BPE, hEGF and Insulin. Primary cells were treated at confluency (approximatively 250000 cells per well) with 0.1% DMSO (control), 2.5 μM and 10 μM of Urolithin A for 24 h, and harvested for RNA sequencing and expression profiling using the NGS platform.

UVB induced erythema = assay: Clinical trial: UVB induced erythema, Chromameter a*; assay type: in vivo, human
Protocol: A sunburn of 1.25 minimal erythemal dose (MED) was evoked on one set of test areas and 1.6 MED on the other set of test areas by irradiation with a sun simulator. On 3 test areas of each set products was applied 24 hours before irradiation, on 3 other test areas of each set products was applied immediately after irradiation. An irradiated but untreated test area served as a control. The effect of the test products was assessed by visual evaluation of erythema and instrumental color measurements by Chromameter before and after irradiation. The study was reviewed by an independent institutional review board (IRB) for ethical approval.
The following efficacy assessment(s) will be performed: • Erythema (a*) by Chromameter (See FIG. 10) • Visual erythema evaluation (trained grader)
The following instrumental measurement(s) will be performed: • CHROMAMETER CR 400 (Minolta, Device D-Langenhagen, Germany): Skin color can objectively be quantified by reflectance measurements with a tri-stimulus Chromameter. The measuring principle is based on the reflection of a Xenon flash that diffusely lightens the skin on an area of 8 mm in diameter. The vertically reflected light from the skin is then detected by high-sensitive silica photodiodes that provide a color analysis of the detected light. The Chromameter defines the measured color in the L*a*b* color coordinate system. The L*-value defines the brightness. The color is defined by the parameters a* (red-green axis; negative a*-value green, positive a*-value red) and b* (blue-yellow axis, negative b*-value blue, positive b*-value yellow). The a* value correlates well with visual assessments of skin redness (erythema), a* is a measure for erythema. […]

[3] = test system: 3D reconstituted human epidermis (RHE); assay: Gene expression in 3D reconstituted human epidermis after daily cream application; assay type: cell-based; conditions: UA 1% moisturizing cream daily for 3 days, vs Vehicle
Source text: Finally, we employed a model of 3D reconstituted human epidermis (RHE) applied daily with the UA 1% moisturizing cream for 3 days.

With `O=c1oc2cc(O)ccc2c2ccc(O)cc12` [Urolithin A] the “PGE2 secretion compared to irradiated skin treated with basic cream formulation without UA” value ([1]; all UA concentrations tested) was “significantly reduces PGE2 secretion”, the “PGE2 secretion compared to irradiated non-treated skin” value ([1]; cream with UA at 0.5%, 1% and 2%, supernatant ELISA) was “significantly reduces PGE2 secretion” and the “expression of collagen genes (COL1A1, COL5A1, COL5A2, COL14A1, COL3A1)” value (human skin) was “significant up-regulation”. For the same compound, the “expression of collagen genes (COL1A1, COL5A1, COL5A2, COL14A1, COL3A1)” value (human skin; listed as Mitopure) was “increased expression; also recorded: all upregulated; also recorded: improved expression”, the “gene set "collagen fibril organization" (Normalized Enrichment Score)” value (human skin) was “significantly upregulated; also recorded: positive” and the “gene set "collagen fibril organization" (Normalized Enrichment Score)” value (human skin; listed as UA) was “most significantly activated pathway”. For the same compound, the “genes involved in skin homeostasis (EMILIN-1, AEBP)” value (human skin; UA 1% topical) was “rescued age-associated decline”, the “gene sets related to chemokine response” value (human skin; UA 1% topical, normalized over vehicle) was “reducing” and the “collagen gene expression (COL1A1)” value ([2]; 2.5 μM or 10 μM, 24 hours) was “did not alter”. For the same compound, the “expression of MMP1” value ([2]; 2.5 μM or 10 μM, 24 hours) was “decreases”, the “expression of MMP1” value ([2]; 2.5 μM or 10 μM, 24 hours, listed as UA) was “suppressed the expression” and the “expression of mitophagy genes PARKIN and PINK1 and autophagy genes MAP1LC3 and ULK1” value ([2]; 2.5 μM or 10 μM, 24 hours, vs vehicle) was “dose-dependent increase”. For the same compound, the “expression of mitophagy marker PINK1” value ([2]; 2.5 uM or 10 uM, vs DMSO) was “increased”, the “skin redness, erythema (a*) by Chromameter vs untreated area” value (UVB induced erythema; skin cream with 1% Urolithin A, 1.6 MED UVB, 24 hours after irradiation) was “reduction; also recorded: significantly less skin redness” and the “reduction of skin redness/erythema” value (UVB induced erythema; skin cream with 1% Urolithin A, 1.6 MED UVB, vs untreated area) was “approximately 14.3%”. The skin redness/erythema (UVB induced erythema; skin cream with Urolithin A at 0.5%) was “did not show any significant effect”, the “MMP1 and MMP3 gene expression” value [3] was “No change” and the “mitophagy and autophagy genes” value [3] was “early activation”.

Reference: patent US20230301890A1, “COMPOSITIONS COMPRISING UROLITHINS” (Amazentis SA, priority 2022, published 2023)
